Test results published in patent publication US5846944A (priority 1997, dated 1998).
Like-named read-outs stand apart in the source and are kept apart here.

Tests used:
[1] = tested on: diabetes mellitus, BBdp rats; assay: Spontaneously developing IDDM in diabetic prone BB (BBdp) rats (Example 5); format: in vivo; conditions: SDG 22 mg/kg daily
Method: Two animal models of IDDM used were: streptozotocin-induced and diabetic prone (dp) BB rats (BBdp). The Zucker diabetic fatty rat (ZDF), an animal model closely resembling human NIDDM, was used for NIDDM.
BBdp rats develop diabetes melliuts spontaneously. […] Serum malondialdehyde (MDA) a measure of levels of oxygen radicals, and antioxidant reserve [pancreatic-chemiluminescence (Pancreatic-CL)] were assessed in blood and pancreas. Male 35-day old BBdp and age matched nondiabetic prone BE (BBn) rats were obtained from Animal Resources Division, Health Protection Branch (Ottawa, Canada).
Two rats from BBn and 4 rats from BBdp at the age of 35 days were sacrificed to measure serum glucose and MDA, and pancreatic MDA and antioxidant reserve. […] Diagnosis of diabetes mellitus was established by testing for the presence of glucosuria which was done every altenate day for 120 days or until glucosuria appeared. Once they developed diabetes or at the end of 120 days rats were anesthetized with nembutal sodium. Blood samples were taken to measure serum glucose and MDA, and pancreas were removed to assess pancreatic MDA and antioxidant reserve. None of the BBdp rats tested positive for glucosuria at 5 weeks and at that age the serum glucose in BBn and BBdp rats were 8.75±0.63 and 10.03±0.65 mmoles/L respectively.

[2] = tested on: endotoxic shock, anesthetized dogs; assay: Endotoxic-shock-induced changes in cardiovascular function, contractility, MDA and antioxidant reserve in anesthetized dogs (Example 2); format: in vivo; conditions: SDG 10 mg/kg i.v. 15 min prior to endotoxin 5 mg/kg i.v.
Method: The dogs were divided into three groups. Group I, (sham 3 hours, n=5). Group II, (ET, n=9), these dogs received endotoxin (5 mg/kg, intravenously). […] Mean aortic blood pressure (mAo), cardiac index (CI) a measure of cardiac function, and cardiac contractility (dp/dt at CPIP/PAW) were measured before (0 min) and at 30 min, 60 min, 90 min, 120 min and 180 min after endotoxin administration. At the end of 3 hours of experiment heart was removed for measurement of MDA and antioxidant reserve. Cardiac function and contractility were measured. Left ventricular MDA (LV-MDA) and left ventricular chemiluminescence (LV-CL) a measure of antioxidant reserve were also estimated.

[3] = tested on: New Zealand white rabbits; assay: Serum lipids (TC, LDL-C, VLDL-C, HDL-C, triglycerides) in rabbits on experimental diets (Example 1); format: in vivo
Method: (§1) Experiments were carried out on six to eight week old female New Zealand white rabbits weighing between 1.8 and 2.0 kg. All procedures relating to the care and welfare of test animals within this experimental protocol conformed to a Standard Operating Procedure (SOP) approved by the Council on Animal Care, University of Saskatchewan, Saskatoon, Saskatchewan, Canada.
Blood samples for measurement of triglycerides (TG), total cholesterol (TC), low density lipoprotein cholesterol (LDL-C), very-low density lipoprotein cholesterol (VLDL-C), and high density lipoprotein cholesterol (HDL-C) were taken before the animals were assigned to the experimental diet (T=0), and after 1 (T=1) and 2 months (T=2) on the experimental diet. The rabbits were sacrificed under pentabarbital anesthesia at the end of 2 months. The aorta was removed for the assessment of atherosclerotic plaques. […]

[4] = tested on: Atherosclerotic plaques, New Zealand White rabbits; assay: Development of atherosclerotic plaques in rabbits on experimental diets (Example 1); format: in vivo; conditions: control diet without cholesterol; flaxseed 15% of diet or SDG 15 mg/kg oral; 2 months
Method: as §1
(§2) Blood samples for measurement of triglycerides (TG), total cholesterol (TC), low density lipoprotein cholesterol (LDL-C), very-low density lipoprotein cholesterol (VLDL-C), and high density lipoprotein cholesterol (HDL-C) were taken before the animals were assigned to the experimental diet (T=0), and after 1 (T=1) and 2 months (T=2) on the experimental diet. The rabbits were sacrificed under pentabarbital anesthesia at the end of 2 months. The aorta was removed for the assessment of atherosclerotic plaques.
(§3) Much has been made of the importance of the composition of certain dietary fats toward health, particularly in relation to the degree of saturation of the fatty acid composition of the triglycerides.

[5] = Body weight of hypercholesterolemic rabbits (Example 1); format: in vivo, New Zealand white rabbits
Method: as §1, §2, §3

[6] = tested on: streptozotocin-induced diabetes mellitus, Sprague-Dawley rats; assay: Streptozotocin-induced diabetes mellitus in rats (Example 3); format: in vivo; conditions: for Plasma Glucose: mean + S.E., P<0.05 vs Group I and vs Group II
Method: Experimental diabetes mellitus was produced in Sprague-Dawley rats by injecting streptozotocin (STZ, 65 mg/kg) intravenously. Diagnosis of diabetes mellitus was established by testing for the presence of glucosuria with Ames Multi Stix (Miles Canada Inc., Etobicoke, Ontario) on the 3rd day after streptozotocin administration. The rats were divided into 4 groups.

[7] = tested on: NIDDM, Zucker diabetic fatty rat (ZDF); assay: NIDDM in Zucker diabetic fatty rats (Example 5); format: in vivo; conditions: SDG 22 mg/kg daily orally in drinking water; two rats examined; two untreated rats showed clear signs
Method: Oxidative stress was assessed by measuring lipid peroxidation product malondialdehyde (MDA) a measure of levels of oxygen radicals, and tissue chemiluminescence (CL) an index of antioxidant reserve in blood and pancreatic tissue. Male 5-6 weeks old ZDF and age match Zucker lean control (ZLC) rats were obtained from Charles River, St. Constant, Quebec, Canada.
Rats were tested for glucosuria to establish diabetes at 5-6 weeks before they were assigned to various groups. None of the rats had glucosuria at this age. […] At the end of the protocol, under anesthesia, blood samples were taken to measure serum glucose and MDA, and pancreas were removed to assess pancreatic MDA and antioxidant reserve.

[8] = tested on: hypercholesterolemic atherosclerosis, New Zealand White rabbits; assay: Comparison with other compounds: hypercholesterolemic atherosclerosis and total cholesterol in rabbits; format: in vivo; conditions: compared with Vitamin E
Excerpt: The effect of Probucol on reducing atherosclerosis varied between 15-45%, depending upon the extent of the hypercholesterolemia.
The mechanism of action for Vitamin E is now generally accepted as preventing the development of hypercholesterolemic atherosclerosis through its antioxidant activity and its ability to scavenge free radicals in the bloodstream.

[9] = Body weight of hypercholesterolemic rabbits (Example 4); format: in vivo, New Zealand White rabbits; conditions: + 1% cholesterol
Method: as §1, §2

[10] = tested on: New Zealand white rabbits; assay: Serum lipids in rabbits (Example 4); format: in vivo; conditions: + 1% cholesterol
Method: as §1, §2

[11] = tested on: hypercholesterolemic atherosclerosis, New Zealand White rabbits; conditions: cited from earlier work
[12] = 0 month, + 1% cholesterol group
[13] = 0 month, control diet without cholesterol
[14] = 1 month, + 1% cholesterol, flaxseed 15% or SDG 15 mg/kg oral
[15] = 1 month, control diet without cholesterol, flaxseed 15% or SDG 15 mg/kg oral
[16] = 2 months, + 1% cholesterol, flaxseed 15% or SDG 15 mg/kg oral
[17] = 2 months, control diet without cholesterol, flaxseed 15% or SDG 15 mg/kg oral
[18] = SDG 22 mg/kg orally for 3 days + STZ 65 mg/kg i.v., 12 rats/group
[19] = SDG 44 mg/kg orally for 3 days + STZ 65 mg/kg i.v., 10 rats/group
[20] = 0 months, SDG 5 mg/kg or SDG (89% pure) 11.24 mg/kg group
[21] = 1 month, SDG 5 mg/kg or SDG (89% pure) 11.24 mg/kg, orally daily
[22] = 2 months, SDG 5 mg/kg or SDG (89% pure) 11.24 mg/kg, orally daily

COc1cc(CC(COC2OC(CO)C(O)C(O)C2O)C(COC2OC(CO)C(O)C(O)C2O)Cc2ccc(O)c(OC)c2)ccc1O (stereo not drawn) [SDG, secoisolariciresinol diglucoside]
rats that developed diabetes ([1]; orally in drinking water, up to 120 days, untreated BBdp 72.7%): 21.4% | prevention of the development of diabetes ([1]; orally in drinking water, vs untreated BBdp): 70.55% | Pancreatic / serum MDA ([1]; both nondiabetic and diabetic, vs untreated BBdp): lower in the SDG-treated group in both nondiabetic and diabetic as compared to untreated BBdp rats | serum glucose, rats that developed diabetes ([1]; compared with nondiabetic SDG-treated BBdp): higher than those not developing diabetes in this group | onset of diabetes ([1]; rats that developed diabetes): delayed the onset of diabetes in ones that developed diabetes | Pancreatic antioxidant reserve (Pancreatic-CL) ([1]; untreated BBdp vs control or SDG-treated group): slightly lower in the untreated group as compared to the control or SDG-treated group but were not significant | Mean aortic blood pressure (mAo), ET-induced fall [2]: prevented the ET-induced fall in mAO up to 30 min | Left ventricular MDA (LV-MDA), ET-induced increase ([2]; 3 hours): prevented the ET-induced increase in LV-MDA | antioxidant reserve (LV-CL), ET-induced decrease ([2]; 3 hours): prevented the ET-induced decrease in antioxidant reserve | Serum HDL-C levels [3, 12]: 0.62 ± 0.10 mmol/L | Serum LDL-C levels [3, 12]: 1.09 ± 0.19 mmol/L | Serum Triglyceride levels [3, 12]: 1.21 ± 0.09 mmol/L | Serum VLDL-C levels [3, 12]: 0.55 ± 0.04 mmol/L | Total serum cholesterol levels [3, 12]: 2.26 ± 0.25 mmol/L | Serum HDL-C levels [3, 13]: 0.58 ± 0.09 mmol/L | Serum LDL-C levels [3, 13]: 0.34 ± 0.09 mmol/L | Serum Triglyceride levels [3, 13]: 1.10 ± 0.13 mmol/L | Serum VLDL-C levels [3, 13]: 0.50 ± 0.06 mmol/L | Total serum cholesterol levels [3, 13]: 1.42 ± 0.11 mmol/L | Serum HDL-C levels [3, 14]: 1.30 ± 0.18 mmol/L | Serum LDL-C levels [3, 14]: 66.26 ± 7.23 mmol/L | Serum Triglyceride levels [3, 14]: 1.40 ± 0.17 mmol/L | Serum VLDL-C levels [3, 14]: 0.64 ± 0.08 mmol/L | Total serum cholesterol levels [3, 14]: 68.20 ± 7.41 mmol/L | Serum HDL-C levels [3, 15]: 0.60 ± 0.06 mmol/L | Serum LDL-C levels [3, 15]: 0.33 ± 0.06 mmol/L | Serum Triglyceride levels [3, 15]: 0.63 ± 0.02 mmol/L | Serum VLDL-C levels [3, 15]: 0.29 ± 0.01 mmol/L | Total serum cholesterol levels [3, 15]: 1.22 ± 0.11 mmol/L | Serum HDL-C levels [3, 16]: 1.20 ± 0.48 mmol/L | Serum LDL-C levels [3, 16]: 43.25 ± 6.64 mmol/L | Serum Triglyceride levels [3, 16]: 1.83 ± 0.35 mmol/L | Serum VLDL-C levels [3, 16]: 0.83 ± 0.16 mmol/L | Total serum cholesterol levels [3, 16]: 45.18 ± 6.68 mmol/L | Serum HDL-C levels [3, 17]: 0.50 ± 0.00 mmol/L | Serum LDL-C levels [3, 17]: 0.25 ± 0.04 mmol/L | Serum Triglyceride levels [3, 17]: 0.60 ± 0.12 mmol/L | Serum VLDL-C levels [3, 17]: 0.27 ± 0.02 mmol/L | Total serum cholesterol levels [3, 17]: 1.12 ± 0.10 mmol/L | Atherosclerotic plaques (% of total internal surface area) [4]: 0 % of total internal surface ar | Body weight [5, 12]: 1.25 ± 0.03 kg | Body weight [5, 13]: 1.75 ± 0.02 kg | Body weight [5, 14]: 1.98 ± 0.08 kg | Body weight [5, 15]: 2.34 ± 0.04 kg | Body weight [5, 16]: 2.35 ± 0.10 kg | # Rats Developing Diabetes [6, 18]: 2 rats | percent of rats developing diabetes mellitus [6, 18]: 16.6% | Plasma Glucose ([6]; SDG 22 mg/kg orally for 3 days + STZ): 9.63 ± 0.71 mmol/L | preventing the development of diabetes, 44 mg/kg compared with 22 mg/kg ([6]; SDG 44 mg/kg): more effective than in the dose of 22 mg/kg | # Rats Developing Diabetes [6, 19]: 1 rats | percent of rats developing diabetes mellitus [6, 19]: 10% | Plasma Glucose ([6]; SDG 44 mg/kg orally for 3 days + STZ): 10.01 ± 0.76 mmol/L | plasma glucose levels compared with streptozotocin-treated group ([6]; SDG 22 and 44 mg/kg): much lower than those in streptozotocin-treated group | prevention of the development of STZ-induced diabetes mellitus ([6]; SDG 22 and 44 mg/kg, overall): approximately 81% | signs of diabetes [7]: showed no signs of diabetes | reduction of hypercholesterolemic atherosclerosis and of total blood cholesterol [8]: accomplishes both | Body weight [9, 20]: 1.47 ± 0.02 kg | Body weight [9, 21]: 2.45 ± 0.04 kg | Serum HDL-C levels [10, 20]: 0.83 ± 0.08 mmol/L | Serum LDL-C levels [10, 20]: 0.89 ± 0.14 mmol/L | Serum Triglyceride levels [10, 20]: 1.30 ± 0.19 mmol/L | Serum VLDL-C levels [10, 20]: 0.59 ± 0.09 mmol/L | Total serum cholesterol levels [10, 20]: 2.31 ± 0.19 mmol/L | Serum HDL-C levels [10, 21]: 0.76 ± 0.42 mmol/L | Serum LDL-C levels [10, 21]: 75.98 ± 9.04 mmol/L | Serum Triglyceride levels [10, 21]: 0.97 ± 0.16 mmol/L | Serum VLDL-C levels [10, 21]: 0.44 ± 0.08 mmol/L | Total serum cholesterol levels [10, 21]: 77.24 ± 7.22 mmol/L | Serum HDL-C levels [10, 22]: 0.48 ± 0.10 mmol/L | Serum LDL-C levels [10, 22]: 58.68 ± 9.69 mmol/L | Serum Triglyceride levels [10, 22]: 0.87 ± 0.20 mmol/L | Serum VLDL-C levels [10, 22]: 0.39 ± 0.09 mmol/L | Total serum cholesterol levels [10, 22]: 59.61 ± 9.8 mmol/L

Vitamin E
reduction of hypercholesterolemic atherosclerosis ([11]; Vitamin E 40 mg/kg, rabbits): up to 73% | total blood cholesterol ([11]; Vitamin E 40 mg/kg, rabbits): without reducing the total blood cholesterol

CC(C)(Sc1cc(C(C)(C)C)c(O)c(C(C)(C)C)c1)Sc1cc(C(C)(C)C)c(O)c(C(C)(C)C)c1 [Probucol]
reduction of hypercholesterolemic atherosclerosis ([11]; Probucol 0.5% in the diet (equivalent to 250 mg/Kg), 0.5% cholesterol diet): up to 43% | total cholesterol in the bloodstream ([11]; Probucol 0.5% in the diet, 0.5% cholesterol diet): did not reduce the total cholesterol | effect on reducing atherosclerosis ([11]; Probucol, depending upon the extent of the hypercholesterolemia): 15-45%
